The source of these data is ChEMBL document CHEMBL1944592 (Bioorg Med Chem Lett, 2012).

What all share (assay type): functional, cell-based
Assay [1] concerns the target T1, Peroxisome proliferator-activated receptor gamma (Homo sapiens) (UniProt P37231).
T1 sequence (whole entry): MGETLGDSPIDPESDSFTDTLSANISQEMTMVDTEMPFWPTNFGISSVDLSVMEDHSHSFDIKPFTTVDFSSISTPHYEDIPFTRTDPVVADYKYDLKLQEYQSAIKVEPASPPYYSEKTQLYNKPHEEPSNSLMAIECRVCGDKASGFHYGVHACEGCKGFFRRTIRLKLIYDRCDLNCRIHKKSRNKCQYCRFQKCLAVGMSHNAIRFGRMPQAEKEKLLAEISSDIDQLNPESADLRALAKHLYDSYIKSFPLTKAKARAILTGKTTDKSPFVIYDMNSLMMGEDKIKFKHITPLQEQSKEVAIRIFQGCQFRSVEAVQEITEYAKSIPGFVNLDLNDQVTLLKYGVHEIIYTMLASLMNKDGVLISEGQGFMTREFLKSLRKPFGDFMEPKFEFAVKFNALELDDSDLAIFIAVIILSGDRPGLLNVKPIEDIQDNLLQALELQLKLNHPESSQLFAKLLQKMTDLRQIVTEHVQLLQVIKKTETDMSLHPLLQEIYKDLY
The assay is described as follows: Partial agonist activity at human PPARgamma expressed in MG-63 cells at 2 times EC50 concentration by reporter gene-based transactivation assay relative to PPARgamma full agonist.

Assay [2] concerns the target T2, Peroxisome proliferator-activated receptor gamma (Homo sapiens, UniProt P37231).
T2 sequence (P37231 whole entry): T1 sequence (whole entry)
The assay is described as follows: Partial agonist activity at human PPARgamma expressed in MG-63 cells by reporter gene-based transactivation assay.

Assay [3] deals with T2, Peroxisome proliferator-activated receptor gamma. The assay is described as follows: Agonist activity at human PPARgamma expressed in MG-63 cells by reporter gene-based transactivation assay.
In assay [4] the target is T1, Peroxisome proliferator-activated receptor gamma (Homo sapiens). The assay is described as follows: Agonist activity at human PPARgamma expressed in MG-63 cells at 2 times EC50 concentration by reporter gene-based transactivation assay relative to PPARgamma full agonist.

Molecule `COc1cc(O)c2c(c1C(=O)NCc1cc(O)cc3ccccc13)OC1=CC(O)=C(C(C)=O)C(=O)[C@]12C` had an Emax in assay [1] of 29%. Besides, in assay [2], the EC50 amounted to 130 nM.

`COC(=O)CCc1cc(CNC(=O)c2c(OC)cc(O)c3c2OC2=CC(O)=C(C(C)=O)C(=O)[C@]23C)c2ccccc2c1` registered an Emax in assay [1] of 79%. In assay [2], the EC50 turned out to be 130 nM.

Molecule `COC(=O)CCCc1cc(CNC(=O)c2c(OC)cc(O)c3c2OC2=CC(O)=C(C(C)=O)C(=O)[C@]23C)c2ccccc2c1` came in with an EC50 in assay [3] of 42 nM. The same molecule yielded an Emax in assay [4] of 99%.

`COc1cc(O)c2c(c1C(=O)NCc1cc(C)cc3ccccc13)OC1=CC(O)=C(C(C)=O)C(=O)[C@]12C` had an Emax in assay [1] of 51%. Besides, it took 210 nM to reach a half-maximal effect in assay [2] (EC50).

As for `CCOc1cc(CNC(=O)c2c(OC)cc(O)c3c2OC2=CC(O)=C(C(C)=O)C(=O)[C@]23C)c2ccccc2c1`, the Emax in assay [1] is 22%. Further, the EC50 in assay [2] was 240 nM.

Turning to `COc1cc(O)c2c(c1C(=O)NCc1cc(OC(C)=O)cc3ccccc13)OC1=CC(O)=C(C(C)=O)C(=O)[C@]12C`, the Emax in assay [1] stood at 50%. Further, the EC50 in assay [2] came out at 680 nM.

In assay [2], `COc1cc(O)c2c(c1C(=O)NCc1cc(C(=O)O)cc3ccccc13)OC1=CC(O)=C(C(C)=O)C(=O)[C@]12C` showed an EC50 of more than 1000 nM.

For `COc1cc(CNC(=O)c2c(OC)cc(O)c3c2OC2=CC(O)=C(C(C)=O)C(=O)[C@]23C)c2ccccc2c1`, the Emax in assay [1] was 32%. In addition, in assay [2], the EC50 worked out at 94 nM.

As for `COc1cc(O)c2c(c1C(=O)NCc1cc(CCC(=O)O)cc3ccccc13)OC1=CC(O)=C(C(C)=O)C(=O)[C@]12C`, the EC50 in assay [3] is 320 nM. The molecule further gave an Emax in assay [4] of 109%.

For `COC(=O)c1cc(CNC(=O)c2c(OC)cc(O)c3c2OC2=CC(O)=C(C(C)=O)C(=O)[C@]23C)c2ccccc2c1`, in assay [1], the Emax was determined as 55%. In assay [2], this molecule displayed an EC50 of 880 nM.

With `COc1cc(O)c2c(c1C(=O)NCc1cc(CCCC(=O)O)cc3ccccc13)OC1=CC(O)=C(C(C)=O)C(=O)[C@]12C`, in assay [3], the EC50 came to 67 nM. Also, the Emax in assay [4] stood at 105%.

In assay [1], `COCc1cc(CNC(=O)c2c(OC)cc(O)c3c2OC2=CC(O)=C(C(C)=O)C(=O)[C@]23C)c2ccccc2c1` registered an Emax of 44%. For the same molecule, the concentration for a half-maximal effect (EC50) in assay [2] is 200 nM.
